Legend:
rice plants [1] = assay: Multi-year analysis for 2015-2016 of field trials (17 trials); assay type: in vivo, Oryza sativa L.; details: 2015-2016, 17 trials; for Thousand grain weight (g/1000 seed): UTC 17.01; for Empty spikelets (number per 12 rice hills): UTC 5636; for Yield at 14% MC (kg/ha): UTC 6318
Protocol: (§1) Rice (Oryza sativa L.) of the local varieties ADT43, ADT45 and NK5251 were mechanically transplanted at four plants per hill with a plant spacing of 16 cm and a row spacing of 30 cm. All trials were performed in good level of water management. Fertilizer was applied in accordance with the best local practice across the trial area. Commercial treated seeds (no neonicotinoids as seed treatments) were used. Weed control was according to the best local practice in order to provide excellent weed control. Foliar fungicides and insecticides were applied according to common practice (no products that contain neonicotinoids or strobilurins). The trial design was a randomized bloc design. Plot size was 40 m^2 (4 m width [12 rows] by 10 m row length). Each trial had four replicates. In total, eleven trials were conducted. The compound of formula (Ia) was applied at a rate of 10 g ai/ha with small-plot hand-held boom sprayer. Application of the compound was as broadcast foliar spray in close proximity to leaf/canopy surface (25-40 cm distance from the crop). The used spray volumes were between 250 L/ha and 500 L/ha. Application was done either at panicle initiation (BBCH 30), at panicle formation (BBCH 32), at spikelet differentiation (BBCH 35), at meiosis (BBCH 39) or at heading (BBCH 51). In some experiments, the compound was applied twice (2×10 g ai/ha) at consecutive growth stages (i.e., BBCH 30+32, BBCH 32+35, BBCH 35+39, and BBCH 39+51). Tolerance to heat stress was assessed by measuring the following yield components: number of panicles per area, number of grains per panicle, percentage of ripened (filled) grains, number of tillers per area, percentage of productive tillers, grain yield per area at 14% moisture and thousand grain weight (TGVV). Further trials were conducted in the Tamil Nadu rice production area (India) in 2016 using the protocol as described above using rice variety ADT45, with treatment timings of panicle initiation (BBCH 30), panicle formation (BBCH 32), spikelet differentiation (BBCH 35) and meiosis (BBCH 39) only. The compound of formula (Ia) was applied at a rate of 10 g Al/ha. Grain yield was measured at 14% moisture content (MC).

rice plants [2] = assay: Further field trials 2016, rice variety ADT45 (7 trials); assay type: in vivo, Oryza sativa L.; details: 10 g AI/ha; for Average yield increase compared to UTC (%): 7 trials 2016; for Yield at 14% MC (kg/ha): 7 trials 2016, mean daily min 25.13° C., max 34.13° C., UTC 6512
Protocol: as §1

Compound: COc1cccc(Nc2nc(F)nc3[nH]cnc23)c1 [formula (Ia)]
- Empty spikelets, % change compared to UTC (rice plants [1]; BBCH 30 at application): −12.5%
- Thousand grain weight, % change compared to UTC (rice plants [1]; BBCH 30 at application): +1.3%
- Yield at 14% MC, % change compared to UTC (rice plants [1]; BBCH 30 at application): +4.1%
- Thousand grain weight (g/1000 seed) (rice plants [1]; BBCH 30 at application): 17.24 g/1000 seed
- Empty spikelets (number per 12 rice hills) (rice plants [1]; BBCH 30 at application): 4927 number per 12 rice hills
- Yield at 14% MC (kg/ha) (rice plants [1]; BBCH 30 at application): 6583 kg/ha
- Empty spikelets, % change compared to UTC (rice plants [1]; BBCH 32 at application): −9.2%
- Thousand grain weight, % change compared to UTC (rice plants [1]; BBCH 32 at application): +1.4%
- Yield at 14% MC, % change compared to UTC (rice plants [1]; BBCH 32 at application): +6.5%
- Thousand grain weight (g/1000 seed) (rice plants [1]; BBCH 32 at application): 17.25 g/1000 seed
- Empty spikelets (number per 12 rice hills) (rice plants [1]; BBCH 32 at application): 5115 number per 12 rice hills
- Yield at 14% MC (kg/ha) (rice plants [1]; BBCH 32 at application): 6727 kg/ha
- Empty spikelets, % change compared to UTC (rice plants [1]; BBCH 35 at application): −7.6%
- Thousand grain weight, % change compared to UTC (rice plants [1]; BBCH 35 at application): +1.3%
- Yield at 14% MC, % change compared to UTC (rice plants [1]; BBCH 35 at application): +6.3%
- Thousand grain weight (g/1000 seed) (rice plants [1]; BBCH 35 at application): 17.23 g/1000 seed
- Empty spikelets (number per 12 rice hills) (rice plants [1]; BBCH 35 at application): 5206 number per 12 rice hills
- Yield at 14% MC (kg/ha) (rice plants [1]; BBCH 35 at application): 6713 kg/ha
- Empty spikelets, % change compared to UTC (rice plants [1]; BBCH 39 at application): −8.3%
- Thousand grain weight, % change compared to UTC (rice plants [1]; BBCH 39 at application): +1.4%
- Yield at 14% MC, % change compared to UTC (rice plants [1]; BBCH 39 at application): +5.2%
- Thousand grain weight (g/1000 seed) (rice plants [1]; BBCH 39 at application): 17.25 g/1000 seed
- Empty spikelets (number per 12 rice hills) (rice plants [1]; BBCH 39 at application): 5170 number per 12 rice hills
- Yield at 14% MC (kg/ha) (rice plants [1]; BBCH 39 at application): 6643 kg/ha
- Average yield increase compared to UTC (%) (rice plants [2]; BBCH 30 at application): +3.5%
- Yield at 14% MC (kg/ha) (rice plants [2]; BBCH 30 at application): 6741 kg/ha
- Average yield increase compared to UTC (%) (rice plants [2]; BBCH 32 at application): +4.7%
- Yield at 14% MC (kg/ha) (rice plants [2]; BBCH 32 at application): 6820 kg/ha
- Average yield increase compared to UTC (%) (rice plants [2]; BBCH 35 at application): +6.4%
- Yield at 14% MC (kg/ha) (rice plants [2]; BBCH 35 at application): 6931 kg/ha
- Average yield increase compared to UTC (%) (rice plants [2]; BBCH 39 at application): +3.6%
- Yield at 14% MC (kg/ha) (rice plants [2]; BBCH 39 at application): 6757 kg/ha
